# Experimental data from the supplement of paper PMC10307832.
# Experiments:
# Experiment in all cases: relative viability (nuclei count vs DMSO), 5 days (fraction); higher = more cells survive
# [1] = compound: OCc1c[nH]c2ccccc12 [Indole-3-carbinol] + NC(=O)Nc1cc(-c2cccc(F)c2)sc1C(=O)N[C@H]1CCCNC1 [AZD7762] (partner 0.2 µM)
# Method in brief: (§1)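 One day after seeding in 1536-well plates, lung cancer cell lines were dosed by pin tool. Dosing was either single-drug or a fixed anchor-drug dose plus five library-drug doses (not always all listed) in √10 steps. After 5 days, nuclei were stained in one fix-and-stain step and counted on 4× images, and relative viability is the nuclei count of treated wells over that of vehicle wells, given as the median of duplicate plates.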
# [2] = compound: OCc1c[nH]c2ccccc12 [Indole-3-carbinol] + COc1cccc2cc(-c3nc([C@H]4CC[C@H](C(=O)O)CC4)n4ncnc(N)c34)[nH]c12 [OSI-027] (partner 0.5 µM)
# Method in brief: as §1
# [3] = compound: OCc1c[nH]c2ccccc12 [Indole-3-carbinol] + CCNC(=O)c1noc(-c2cc(C(C)C)c(O)cc2O)c1-c1ccc(CN2CCOCC2)cc1 [Luminespib] (partner 0.01 µM)
# Method in brief: as §1
# [4] = compound: OCc1c[nH]c2ccccc12 [Indole-3-carbinol] + CC(=O)Nc1cccc(-n2c(=O)n(C3CC3)c(=O)c3c(Nc4ccc(I)cc4F)n(C)c(=O)c(C)c32)c1 [Trametinib] (partner 0.02 µM)
# Method in brief: as §1
# [5] = compound: OCc1c[nH]c2ccccc12 [Indole-3-carbinol] + O=C(CCCCCCC(=O)Nc1ccccc1)NO [Vorinostat] (partner 1 µM)
# Method in brief: as §1
Cell Line,relative viability ([1]; first compound 0.253 µM),relative viability ([1]; first compound 0.8 µM),relative viability ([1]; first compound 2.53 µM),relative viability ([1]; first compound 8 µM),relative viability ([2]; first compound 0.253 µM),relative viability ([2]; first compound 0.8 µM),relative viability ([2]; first compound 2.53 µM),relative viability ([2]; first compound 8 µM),relative viability ([3]; first compound 0.253 µM),relative viability ([3]; first compound 0.8 µM),relative viability ([3]; first compound 2.53 µM),relative viability ([3]; first compound 8 µM),relative viability ([4]; first compound 0.253 µM),relative viability ([4]; first compound 0.8 µM),relative viability ([4]; first compound 2.53 µM),relative viability ([4]; first compound 8 µM),relative viability ([5]; first compound 0.253 µM),relative viability ([5]; first compound 0.8 µM),relative viability ([5]; first compound 2.53 µM),relative viability ([5]; first compound 8 µM)
LOU-NH91,0.791,0.703,0.77,0.755,0.747,0.671,0.722,0.689,0.369,0.342,0.306,0.356,0.81,0.747,0.788,0.802,0.924,0.865,0.961,0.945
LU99A,0.379,0.392,0.434,0.329,0.307,0.355,0.291,0.284,0.237,0.199,0.209,0.207,0.5,0.517,0.521,0.545,0.504,0.514,0.59,0.455
LXF-289,1.25,1.1,1.13,1.03,0.838,0.855,0.783,0.754,0.787,0.754,0.647,0.575,0.678,0.693,0.651,0.656,0.836,0.795,0.733,0.76
NCI-H23,0.315,0.263,0.256,0.294,0.589,0.732,0.566,0.55,0.219,–,0.233,0.223,0.315,0.319,0.43,0.414,0.516,0.615,0.704,0.587
NCI-H322M,0.607,0.596,0.514,0.613,0.521,0.504,0.521,0.527,0.828,0.861,0.895,0.783,0.517,0.411,0.496,0.451,0.713,0.8,0.902,0.779
NCI-H358,0.56,0.489,0.591,0.507,0.792,0.734,0.859,0.64,0.366,0.447,0.458,0.233,0.119,0.122,0.139,0.121,0.763,0.752,0.684,0.624
NCI-H441,1.34,1.23,1.27,1.15,0.555,0.73,0.604,0.622,0.324,0.334,0.456,0.301,0.59,0.547,0.469,0.475,0.823,1.05,1.09,0.758
NCI-H460,0.652,0.602,0.679,0.645,0.594,0.621,0.632,0.6,0.0368,0.037,0.0298,0.0346,0.119,0.151,0.11,0.129,0.768,0.76,0.754,0.683
NCI-H522,0.78,0.92,0.956,0.912,0.646,0.821,0.685,0.836,1.17,1.05,1.1,0.949,0.794,0.798,0.839,0.749,1.1,0.694,0.808,0.95
NCI-H596,1.06,1.07,1.11,1.06,0.759,0.761,0.726,0.866,0.734,1.01,0.913,1,0.779,0.829,0.809,0.762,0.552,0.522,0.565,0.675
NCI-H647,0.604,0.293,0.463,0.551,0.595,–,0.826,0.497,0.261,0.199,0.156,0.236,0.562,0.405,0.508,0.524,0.731,0.529,0.731,0.538
NCI-H650,1.01,1.21,0.967,1.04,0.559,0.512,0.482,0.482,0.785,0.882,0.844,0.647,1.13,0.958,1.04,0.956,0.654,0.454,0.411,0.456
NCI-H727,0.664,0.834,0.579,0.551,0.544,0.517,0.548,0.771,0.355,0.452,0.344,0.328,0.372,0.393,0.412,0.392,1.13,1.12,1.36,1.23
NCI-H838,1.05,0.84,0.975,0.883,0.344,0.311,0.416,0.386,0.292,0.305,0.308,0.303,0.593,0.499,0.525,0.495,0.741,0.737,0.766,0.654
NCI-H1355,0.859,0.806,0.799,0.778,0.403,0.44,0.363,0.396,0.754,0.764,0.618,0.643,0.43,0.343,0.386,0.415,0.612,0.69,0.667,0.63
NCI-H1395,0.404,0.41,0.379,0.399,0.738,0.606,0.637,0.613,0.606,0.813,0.817,0.686,1,1.01,1.08,0.995,0.694,0.65,0.628,1.05
NCI-H1437,1.21,1.22,1.15,1.09,0.917,0.849,0.895,0.852,1.07,1.2,1.13,1.11,0.549,0.558,0.459,0.458,0.827,0.979,0.861,0.868
NCI-H1651,0.448,0.441,0.438,0.437,0.626,0.643,0.84,0.648,0.848,0.877,0.686,0.753,0.819,0.787,0.823,0.822,0.517,0.55,0.616,0.646
NCI-H1666,0.914,0.743,0.827,0.739,0.7,0.878,0.874,0.876,0.914,0.925,1.01,1.05,0.828,0.85,0.939,0.788,0.926,1.1,1.08,0.995
NCI-H1734,0.519,0.601,0.551,0.512,0.506,0.631,0.634,0.582,0.242,0.246,0.194,0.221,0.676,0.762,0.617,0.651,0.799,0.809,0.803,0.774
NCI-H1755,0.463,0.42,0.5,0.42,0.761,0.664,0.822,0.699,0.554,0.407,0.49,0.348,0.784,0.737,0.815,0.733,0.83,0.694,0.738,0.78
NCI-H1793,0.424,0.468,0.507,0.455,0.233,0.251,0.268,0.31,0.171,0.179,0.142,0.175,0.403,0.442,0.455,0.481,0.915,0.798,0.898,0.632
NCI-H1915,0.655,0.625,0.767,0.737,0.571,0.611,0.623,0.563,0.695,0.794,0.741,0.662,0.282,0.294,0.342,0.296,0.511,0.512,0.495,0.518
NCI-H1944,0.517,0.441,0.509,0.54,0.375,0.378,0.369,0.363,0.792,0.682,0.842,0.79,0.425,0.378,0.393,0.417,0.529,0.472,0.595,0.523
NCI-H1975,0.624,0.79,0.764,0.613,0.589,0.808,0.696,0.743,0.343,0.224,0.171,0.21,0.559,0.493,0.337,0.641,0.663,0.754,0.73,0.712
NCI-H1993,0.827,0.876,0.691,0.843,0.513,0.516,0.63,0.468,1.02,0.915,0.889,0.823,0.483,0.519,0.513,0.554,0.697,1.05,0.958,0.783
